Results reported in patent US4008285A, “Process for making xylitol” (priority 1975, dated 1977).

Assay: Solubility of galactitol (no method)
Type: physicochemical
Conditions: galactitol tends to crystallize with xylitol crystals; no solvent or temperature printed

For `OC[C@@H](O)[C@H](O)[C@H](O)[C@@H](O)CO` [galactitol], which solubility is on record?
The solubility was “very low solubility”.
